The test system of one experiment is hCAP18. Kind of experiment: hCAP18 mRNA in acute surgical wounds of healthy volunteers, Real-Time RT-PCR. The class given is in vivo, human. As to conditions: topical, 24 h, nine probands, relative to vaseline control wound. The procedure:
To assess whether treatment with a vitamin D compound can further enhance the up-regulation of hCAP18 during acute skin injury, fresh surgical wounds in healthy volunteers (n=9) were treated with vitamin D ointment.
(§1) The investigation was non-randomized, single blinded including four females and five males, age 22-30 years. Only fair skinned, young and healthy individuals were included and the tissue was obtained from the same body location in a non-sun exposed area. Each individual obtained 3 wounds in the left and the right inguinal region, respectively. The topical treatment with vitamin D was applied on one side and the control treatment on the contra lateral side. To each of the wounds on one side, 25 μg calcipotriol in 0.5 g ointment (Daivonex, LEO Pharma, Malmo, Sweden) was applied to a total test area of 2×2.25 cm, including one wound with surrounding intact skin. The control wounds in the opposite inguinal region were treated with vaseline (ACO, Stockholm, Sweden). All wounds were covered with inert dressing (Melolin, Smith and Nephew, Hull, U K; Mefix, Molnlycke A B, Gothenburg, Sweden; Tegaderm, 3M Health Care, St. Paul, USA). After 12 hours the dressing was changed and the treatment was repeated. […]
Expression of hCAP18 mRNA was quantified by Real-Time PCR, as described in Example 1. […]
On the technique in general: Real-time PCR tracks product formation cycle by cycle.

Another experiment relates to hCAP18/LL-37. Kind of experiment: hCAP18 and LL-37 protein in acute wounds, Western blot. The class given is in vivo, human.
Excerpt: as §1, with “repeated. In the first four individuals investigated the bandage was removed at 24 hours and the wounds were excised with a 6 mm biopsy punch and snap frozen.” for “repeated.”
Protein was calculated from frozen biopsies from patients (n=5) cut in 50 μm sections and homogenized. […] Protein concentrations were measured by Protein Assay Kit (Bio-Rad Laboratories, Hercules, USA) based on the Bradford method (Bradford 1976). […]
In general terms: A western blot detects proteins with antibodies after separation by electrophoresis.

Each structure is given as a SMILES string.

The values below come from patent US20080038374A1, “New Use” (Lipopeptide AB, priority 2004, published 2008).

Take `C=C1/C(=C\C=C2/CCC[C@]3(C)[C@@H]([C@H](C)/C=C/[C@@H](O)C4CC4)CC[C@@H]23)C[C@@H](O)C[C@@H]1O` [calcipotriol]: in the experiment on hCAP18, the “up-regulation of hCAP18 mRNA in acute wounds” value is reported as “enhances the up-regulation of hCAP18 mRNA”. The “immunoreactive bands of the processed peptide LL-37 versus control wounds” value in the experiment with hCAP18/LL-37 is recorded as “in all three individuals, stronger immunoreactive bands”. In the experiment on hCAP18/LL-37 (24 and 48 hours, five individuals), the “immunoreactive bands of the 18 kDa hCAP18 holoprotein versus control wounds” value is on record as “three of the five individuals investigated demonstrated stronger immunoreactive bands”.
